Laboratory results from ChEMBL document CHEMBL4616710, “Discovery of a Potent Anticancer Agent PVHD303 with in Vivo Activity” (ACS Med Chem Lett, 2020).

Assays:
A549 [1] = test: Antiproliferative activity against human A549 cells assessed as cell growth inhibition incubated for 72 hrs by CellTiter96 Aqueous one solution cell proliferation assay; assay type: functional, cell-based; details: A549, 72 h
A549 [2] = test: Antiproliferative activity against human A549 cells assessed as cell growth inhibition; assay type: functional, cell-based
HCT-116 [3] = test: Antiproliferative activity against human HCT116 cells assessed as cell growth inhibition incubated for 72 hrs by CellTiter96 Aqueous one solution cell proliferation assay; assay type: functional, cell-based; details: HCT-116, 72 h
HeLa [4] = test: Antimitotic activity against human HeLa cells assessed as proportion of cells with bipolar spindles at 16 nM measured after 16 to 18 hrs by DAPI-staining based fluorescence microscopy analysis relative to control; assay type: functional
HeLa [5] = test: Antimitotic activity against human HeLa cells assessed as proportion of mitotic cells at 4 nM measured after 16 to 18 hrs by DAPI-staining based fluorescence microscopy analysis relative to control; assay type: functional
HeLa [6] = test: Antimitotic activity against human HeLa cells assessed as proportion of cells with diffuse alpha-tubulin at 12 nM measured after 16 to 18 hrs by DAPI-staining based fluorescence microscopy analysis relative to control; assay type: functional
HeLa [7] = test: Antimitotic activity against human HeLa cells assessed as proportion of cells with diffuse alpha-tubulin at 4 nM measured after 16 to 18 hrs by DAPI-staining based fluorescence microscopy analysis relative to control; assay type: functional
HeLa [8] = test: Antimitotic activity against human HeLa cells assessed as proportion of cells with irregular spindles at 12 nM measured after 16 to 18 hrs by DAPI-staining based fluorescence microscopy analysis relative to control; assay type: functional
HeLa [9] = test: Antimitotic activity against human HeLa cells assessed as proportion of cells with diffuse alpha-tubulin at 8 nM measured after 16 to 18 hrs by DAPI-staining based fluorescence microscopy analysis relative to control; assay type: functional
HeLa [10] = test: (§1) Antimitotic activity against human HeLa cells assessed as proportion of cells with microtubule disruption around the condensed chromosomes and unseparated centrosome at 16 nM measured after 16 to 18 hrs by anti-alpha-tubulin/anti-gamma-tubulin antibodies based immunostaining/DAPI-staining based fluorescence microscopy analysis relative to control; assay type: functional
HeLa [11] = test: Antimitotic activity against human HeLa cells assessed as proportion of mitotic cells at 8 nM measured after 16 to 18 hrs by DAPI-staining based fluorescence microscopy analysis relative to control; assay type: functional
HeLa [12] = test: as §1, with “at 8” for “at 16”; assay type: functional
HeLa [13] = test: as §1, with “at 12” for “at 16”; assay type: functional
HeLa [14] = test: Antimitotic activity against human HeLa cells assessed as proportion of cells with bipolar spindles at 4 nM measured after 16 to 18 hrs by DAPI-staining based fluorescence microscopy analysis relative to control; assay type: functional
HeLa [15] = test: Antimitotic activity against human HeLa cells assessed as proportion of mitotic cells at 12 nM measured after 16 to 18 hrs by DAPI-staining based fluorescence microscopy analysis relative to control; assay type: functional
HCT-116 [16] = test: Antitumor activity against human HCT116 cells xenografted in BALB/c nude mouse assessed as tumor growth inhibition at 10 mg/kg, iv qd administered on day 1,3,5,8,10,12,15,17,19 and measured on day 22 by caliper method relative to control; assay type: functional; details: HCT-116, iv, read-out: TGI
HeLa [17] = test: Antimitotic activity against human HeLa cells assessed as proportion of cells with irregular spindles at 8 nM measured after 16 to 18 hrs by DAPI-staining based fluorescence microscopy analysis relative to control; assay type: functional
HCT-116 [18] = test: Antitumor activity against human HCT116 cells xenografted in BALB/c nude mouse assessed as tumor growth inhibition at 20 mg/kg, iv qd administered on day 1,3,5,8,10,12,15,17,19 and measured on day 22 by caliper method relative to control; assay type: functional; details: HCT-116, iv, read-out: TGI
HeLa [19] = test: Antimitotic activity against human HeLa cells assessed as proportion of cells with diffuse alpha-tubulin at 16 nM measured after 16 to 18 hrs by DAPI-staining based fluorescence microscopy analysis relative to control; assay type: functional
HeLa [20] = test: Antimitotic activity against human HeLa cells assessed as proportion of cells with irregular spindles at 4 nM measured after 16 to 18 hrs by DAPI-staining based fluorescence microscopy analysis relative to control; assay type: functional
HeLa [21] = test: as §1, with “at 4” for “at 16”; assay type: functional
HeLa [22] = test: Antimitotic activity against human HeLa cells assessed as proportion of cells with bipolar spindles at 12 nM measured after 16 to 18 hrs by DAPI-staining based fluorescence microscopy analysis relative to control; assay type: functional
HeLa [23] = test: Antimitotic activity against human HeLa cells assessed as proportion of cells with irregular spindles at 16 nM measured after 16 to 18 hrs by DAPI-staining based fluorescence microscopy analysis relative to control; assay type: functional
HeLa [24] = test: Antimitotic activity against human HeLa cells assessed as proportion of cells with bipolar spindles at 8 nM measured after 16 to 18 hrs by DAPI-staining based fluorescence microscopy analysis relative to control; assay type: functional
HeLa [25] = test: Antimitotic activity against human HeLa cells assessed as proportion of mitotic cells at 16 nM measured after 16 to 18 hrs by DAPI-staining based fluorescence microscopy analysis relative to control; assay type: functional
HCT-116 [26] = test: Antitumor activity against human HCT116 cells xenografted in iv dosed BALB/c nude mouse assessed as tumor growth inhibition administered once daily on day 1,3,5,8,10,12,15,17,19 and measured on day 22 by caliper method; assay type: functional, organism-based

SMILES: COc1ccc(C(C)(O)c2nc(Br)nc3ccccc23)cc1 (centres undefined)
- IC50 (A549 [1]): 50 nM

SMILES: CC[C@]1(O)C[C@@H]2CN(CCc3c([nH]c4ccccc34)[C@@](C(=O)OC)(c3cc4c(cc3OC)N(C)[C@H]3[C@@](O)(C(=O)OC)[C@H](OC(C)=O)[C@]5(CC)C=CCN6CC[C@]43[C@@H]65)C2)C1 [VINBLASTINE]
- IC50 (A549 [1]): 21 nM

SMILES: COc1ccc(C(C)(O)c2nc(N3CCC(O)CC3)nc3ccccc23)cc1 (centres undefined)
- IC50 (A549 [1]): 9320 nM

SMILES: CNc1nc(C(C)(O)c2ccc(OC)cc2)c2ccccc2n1 (centres undefined)
- IC50 (A549 [1]): 20 nM

SMILES: COc1ccc(C(C)(O)c2ncnc3c(Cl)cccc23)cc1 (centres undefined)
- IC50 (A549 [1]): 240 nM

SMILES: COc1ccc(C(C)(O)c2ncnc3ccc(C)cc23)cc1 (centres undefined)
- IC50 (A549 [1]): 1100 nM

SMILES: COc1ccc(C(C)(O)c2ncnc3cccc(F)c23)cc1 (centres undefined)
- IC50 (A549 [1]): 12000 nM

SMILES: C=Cc1nc(C(C)(O)c2ccc(OC)cc2)c2ccccc2n1 (centres undefined)
- IC50 (A549 [1]): 27 nM

SMILES: COc1ccc(C(C)(O)c2nc(N3CCCC3)nc3ccccc23)cc1 (centres undefined)
- IC50 (A549 [1]): 1260 nM

SMILES: COC(=O)Nc1nc2cc(C(=O)c3cccs3)ccc2[nH]1 [NOCODAZOLE]
- IC50 (A549 [1]): 272 nM

SMILES: COc1ccc(C(C)(O)c2nc(N3CCC(Cl)CC3)nc3ccccc23)cc1 (centres undefined)
- IC50 (A549 [1]): 3670 nM

SMILES: COc1ccc(C(C)(O)c2ncnc3ccc(F)cc23)cc1 (centres undefined)
- IC50 (A549 [1]): 350 nM

SMILES: COc1ccc(C(C)(O)c2nc(N3CCOCC3)nc3ccccc23)cc1 (centres undefined)
- IC50 (A549 [2]): 140 nM

SMILES: COc1ccc(C(C)(O)c2nc(N)nc3ccccc23)cc1 (centres undefined)
- IC50 (A549 [1]): 50 nM

SMILES: COc1ccc(C(C)(O)c2nc(-c3ccc(C(F)(F)F)cc3)nc3ccccc23)cc1 (centres undefined)
- IC50 (A549 [1]): 1590 nM

SMILES: COc1ccc(C(C)(O)c2nc(-c3ccc(O)cc3)nc3ccccc23)cc1 (centres undefined)
- IC50 (A549 [1]): 1410 nM

SMILES: COc1ccc(C(C)(O)c2nc(-c3ccsc3C(C)=O)nc3ccccc23)cc1 (centres undefined)
- IC50 (A549 [1]): 52 nM

SMILES: COc1ccc(C(C)(O)c2nc(-c3ccc4c(c3)OCO4)nc3ccccc23)cc1 (centres undefined)
- IC50 (A549 [1]): 1170 nM

SMILES: COc1ccc(C(C)(O)c2nc(N3CCC(OC)CC3)nc3ccccc23)cc1 (centres undefined)
- IC50 (A549 [1]): 1220 nM

SMILES: COc1ccc(C(C)(O)c2ncnc3cc(C)ccc23)cc1 (centres undefined)
- IC50 (A549 [1]): > 25000 nM

SMILES: COc1ccc(C(C)(O)c2ncnc3c(OC)cccc23)cc1 (centres undefined)
- IC50 (A549 [1]): 2100 nM

SMILES: COc1ccc(C(C)(O)c2nc(N3CC=CC3)nc3ccccc23)cc1 (centres undefined)
- IC50 (A549 [1]): 220 nM

SMILES: C/C=C\c1nc(C(C)(O)c2ccc(OC)cc2)c2ccccc2n1 (centres undefined)
- IC50 (A549 [1]): 380 nM

SMILES: COc1ccc(C(C)(O)c2nc(N3CC=CCC3)nc3ccccc23)cc1 (centres undefined)
- IC50 (A549 [1]): 710 nM

SMILES: COc1ccc(C(C)(O)c2nc(-c3ccc(F)cc3)nc3ccccc23)cc1 (centres undefined)
- IC50 (A549 [1]): 48 nM

SMILES: COc1ccc(C(C)(O)c2nc(N3CCSCC3)nc3ccccc23)cc1 (centres undefined)
- IC50 (A549 [1]): 2440 nM

SMILES: COc1ccc(C(C)(O)c2ncnc3c(F)cccc23)cc1 (centres undefined)
- IC50 (A549 [1]): 430 nM

SMILES: COc1ccc(C(C)(O)c2nc(-n3cccc3)nc3ccccc23)cc1 (centres undefined)
- IC50 (A549 [1]): 50 nM

SMILES: COc1ccc(C(C)(O)c2nc(-c3ccco3)nc3ccccc23)cc1 (centres undefined)
- IC50 (A549 [1]): 36 nM

SMILES: COc1ccc(C(C)(O)c2nc(N3CCSC3)nc3ccccc23)cc1 (centres undefined)
- IC50 (A549 [1]): 580 nM

SMILES: COc1ccc(C(C)(O)c2nc(-c3cccnc3)nc3ccccc23)cc1 (centres undefined)
- IC50 (A549 [1]): 60 nM

SMILES: COc1ccc(C(C)(O)c2nc(-c3cccs3)nc3ccccc23)cc1 (centres undefined)
- IC50 (A549 [1]): 48 nM

SMILES: COc1ccc(C(C)(O)c2nc(N3CC3)nc3ccccc23)cc1 (centres undefined)
- IC50 (A549 [1]): 220 nM

SMILES: COc1ccc(C(C)(O)c2nc(-c3c(C)noc3C)nc3ccccc23)cc1 (centres undefined)
- IC50 (A549 [1]): 59 nM

SMILES: COc1ccc(C(C)(O)c2nc(C3CC3)nc3ccccc23)cc1 (centres undefined)
- IC50 (A549 [1]): 637 nM

SMILES: COc1ccc(C(C)(O)c2ncnc3cc(F)ccc23)cc1 (centres undefined)
- IC50 (A549 [1]): 4670 nM

SMILES: COc1ccc(C(C)(O)c2nc(N3CCC(F)(F)CC3)nc3ccccc23)cc1 (centres undefined)
- IC50 (A549 [1]): 4910 nM

SMILES: COc1ccc(C(C)(O)c2ncnc3c(C)cccc23)cc1 (centres undefined)
- IC50 (A549 [1]): 1560 nM

SMILES: COc1ccc(C(C)(O)c2ncnc3cc(OC)ccc23)cc1 (centres undefined)
- IC50 (A549 [1]): > 25000 nM

SMILES: COc1ccc(C(C)(O)c2nc(N3CCC(F)CC3)nc3ccccc23)cc1 (centres undefined)
- IC50 (A549 [1]): 760 nM

SMILES: COc1ccc(C(C)(O)c2nc(N3CCC3)nc3ccccc23)cc1 (centres undefined)
- IC50 (A549 [1]): 1100 nM

SMILES: COc1ccc(C(C)(O)c2nc(-c3ccc(Cl)s3)nc3ccccc23)cc1 (centres undefined)
- IC50 (A549 [1]): 895 nM

SMILES: COc1ccc(C(C)(O)c2ncnc3ccc(OC)cc23)cc1 (centres undefined)
- IC50 (A549 [1]): 5160 nM

SMILES: COc1ccc(C(C)(O)c2ncnc3ccc(Cl)cc23)cc1 (centres undefined)
- IC50 (A549 [1]): 80 nM

SMILES: COc1ccc(C(C)(O)c2ncnc3cc(Cl)ccc23)cc1 (centres undefined)
- IC50 (A549 [1]): 870 nM

SMILES: COc1ccc(C(C)(O)c2nc(-c3coc(C=O)c3)nc3ccccc23)cc1 (centres undefined)
- IC50 (A549 [1]): 1010 nM

SMILES: COc1ccc(C(C)(O)c2nc(-c3ccccc3O)nc3ccccc23)cc1 (centres undefined)
- IC50 (A549 [1]): 223 nM

SMILES: COc1ccc(C(C)(O)c2nc(-c3ccoc3)nc3ccccc23)cc1 (centres undefined)
- IC50 (A549 [1]): 13 nM
- IC50 (HCT-116 [3]): 13 nM
- Activity (HeLa [4]): 0%
- Activity (HeLa [5]): 50%
- Activity (HeLa [6]): 33%
- Activity (HeLa [7]): 0%
- Activity (HeLa [8]): 0%
- Activity (HeLa [9]): 0%
- Activity (HeLa [10]): 57%
- Activity (HeLa [11]): 52%
- Activity (HeLa [12]): 5.8%
- Activity (HeLa [13]): 67%
- Activity (HeLa [14]): 100%
- Activity (HeLa [15]): 52%
- inhibition in vivo at 10 mg/kg (HCT-116 [16]): 24.6%
- Activity (HeLa [17]): 44.2%
- inhibition in vivo at 20 mg/kg (HCT-116 [18]): 62.9%
- Activity (HeLa [19]): 43%
- Activity (HeLa [20]): 0%
- Activity (HeLa [21]): 0%
- Activity (HeLa [22]): 0%
- Activity (HeLa [23]): 0%
- Activity (HeLa [24]): 50%
- Activity (HeLa [25]): 60%
- TGI (HCT-116 [26]): Dose-dependent effect

SMILES: COc1ccc(C(C)(O)c2nc(-c3ccc(C#N)s3)nc3ccccc23)cc1 (centres undefined)
- IC50 (A549 [1]): 13 nM

SMILES: COc1ccc(C(C)(O)c2nc(-c3cn[nH]c3)nc3ccccc23)cc1 (centres undefined)
- IC50 (A549 [1]): 254 nM
